Source: article PMC6694155, “PTPσ inhibitors promote hematopoietic stem cell regeneration” (Nature Communications, 2019)
“And” between values parts separate entries of the source, which are not always exact repeats. Equal entries are not always repeated.

Tested on: BM KSL cells; donor CD45.2+ cells
Assay: In vivo BrdU incorporation analysis
Set-up: species or system mouse
Protocol: For BrdU incorporation analysis in BM KSL cells in vivo, adult C57Bl/6 mice were irradiated with 750 cGy TBI and treated with 5 mg/kg DJ001 or vehicle daily from day + 1 to day + 10. On day + 10, mice were injected intraperitoneally with 2 mg BrdU (BD Biosciences). Sixteen hours later, BM cells were collected and stained with anti-BrdU FITC (BD Biosciences, #557891, 1:50), APC-Cy7-conjugated anti-Sca1 (BD Biosciences, #560654, 1:100), PE-conjugated anti-c-kit (BD Biosciences, #553355, 1:100), and V450 lineage cocktail (BD Biosciences, #561301, 1:10). We repeated this BrdU incorporation analysis on donor CD45.2^+ cells at day + 7 and day + 21 following competitive transplantation into recipient CD45.1^+ mice.

SMILES: O=C(/C=C\Nc1cccc([N+](=O)[O-])c1)c1ccccc1 [DJ001, (Z)-3-((3-nitrophenyl)amino)-1-phenylprop-2-en-1-one]
- BrdU incorporation (Supplementary Figure 7i): 36.54 and 44.684 and 44.262 and 33.456
- BrdU incorporation in donor CD45.2+ cells, DJ001 vs vehicle group (day +7 and day +21 following competitive transplantation): no difference in BrdU incorporation
- BrdU incorporation in BM KSL cells vs vehicle (day +10 following 750 cGy TBI): increased bromodeoxyuridine (BrdU) incorporation
